Results on five compounds are retold here after ChEMBL document CHEMBL1201862, “PubChem BioAssay data set” (2004).

Test in all cases: NCI tumour cell line growth inhibition, 48 h
Assay [1] concerns A498.
Assay [2] has as its system ACHN.
The subject of assay [3] is CCRF-CEM.
Assay [4] deals with DLD-1.
The subject of assay [5] is HCT-15.
For assay [6], the system named is HT-29.
In assay [7] the test system is K562.
In assay [8] the test system is NCI-H226.
In assay [9] the test system is NCI-H23.
Assay [10] relates to NCI-H460.
The test system of assay [11] is SF-295.
Assay [12] relates to SK-MEL-28.
Assay [13] has as its system SK-MEL-5.
Assay [14] relates to SN12C.
Assay [15] relates to HCC 2998.
The test system of assay [16] is RPMI-8226.
Assay [17] relates to BT-549.
Assay [18] relates to MCF7.
The subject of assay [19] is MDA-MB-231.
The test system of assay [20] is T47D.

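Assay format: 96-well plates, 48-hour exposure. GI50 is the concentration that inhibits growth by half.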 Activity calls are given as the source filed them. Rule as the data show it: active = GI50 up to about 1.1 µM and inactive = higher.

`CC(=O)Nc1ccc(C2CC(c3ccc([N+](=O)[O-])cc3)=Nc3ccccc3S2)cc1` (stereo not given): the GI50 in [1] was 16.5 µM (inactive); in assay [2] it was 16.6 µM (inactive); in assay [3] it was 13.8 µM (inactive); in [4], 13.3 µM (inactive); in assay [5] it was 17.1 µM; in assay [6], 15.4 µM (inactive). For the same compound, the GI50 in assay [7] was 4.73 µM (inactive); in [8] it was 26.9 µM (inactive); in assay [9], > 10 µM (inactive); in assay [10] it was 17.3 µM (inactive); in assay [11], 18.6 µM (inactive); in assay [12] it was 18.7 µM (inactive). Moreover, the GI50 in assay [13] is > 10 µM (inactive); in [14], 16.6 µM (inactive).
With `OC1c2ccccc2C2C(O)c3ccccc3C12` (stereo not given), the GI50 was > 100 µM (inactive) in [2]; > 100 µM (inactive) in [3]; > 100 µM (inactive) in assay [4]; > 100 µM (inactive) in [15]; more than 100 µM in [5]; > 100 µM (inactive) in [6]. The GI50 in assay [7], in [9], in assay [10], in assay [16], in assay [11] and in [12] was > 100 µM (inactive) in each case. Moreover, the GI50 in assay [13] and in assay [14] was > 100 µM (inactive) throughout.
As for `N#Cc1c(N)oc2cc3c(C#N)c(N)oc3cc12`, the GI50 in assay [2] is > 100 µM (inactive); in assay [3] it was > 100 µM (inactive); in assay [4], > 100 µM (inactive); in assay [15], > 100 µM (inactive); in [5], more than 100 µM; in [6], > 100 µM (inactive). Further, the GI50 in assay [7], in [9], in assay [10], in assay [16], in assay [11] and in assay [12] was > 100 µM (inactive) throughout. Moreover, the GI50 in assay [13] and in assay [14] was > 100 µM (inactive) in each case.
As to `Cc1ccc(O)cc1.Cc1cccc(O)c1.Cc1ccccc1O` [CRESOL], the GI50 in assay [1] is > 100 µM (inactive); in assay [2] it was > 100 µM (inactive); in assay [17], > 100 µM (inactive); in [3] it was 18.7 µM (inactive); in assay [15] it was > 100 µM (inactive); in assay [5], more than 100 µM. Further, the GI50 is > 100 µM (inactive) in [6]; > 100 µM (inactive) in [7]; > 100 µM (inactive) in assay [18]; > 100 µM (inactive) in [19]; 85.9 µM (inactive) in assay [8]; > 100 µM (inactive) in assay [9]. The GI50 in assay [10], in [16], in assay [11], in assay [12], in assay [13] and in [14] was > 100 µM (inactive) throughout. The GI50 in assay [20] is > 100 µM (inactive).
On to `O=C(O)CS` [THIOGLYCOLIC ACID], for which the GI50 is > 100 µM (inactive) in assay [3]; > 100 µM (inactive) in [4]; > 100 µM (inactive) in assay [15]; more than 100 µM in [5]; > 100 µM (inactive) in assay [6]; > 100 µM (inactive) in assay [7]. In addition, the GI50 in [8], in [9], in [10], in assay [16], in assay [11] and in [12] was > 100 µM (inactive) throughout. Besides, the GI50 in [13] and in assay [14] was > 100 µM (inactive) throughout.
